Experiments:
[1] = tested on: ALOX15B and ALOXE3; assay: ALOX15B / ALOXE3 siRNA knockdown and lethal compound sensitivity in HT-1080 cells; format: cell-based, human
Protocol: HT-1080 cells were transfected with siRNA pools targeting either ALOX15B or ALOXE3, and then, treated with the indicated RSL compounds in 2-fold dilution series. 24 hours after compound treatment, alamar blue was added to the culture at a final concentration of 10% in growth media to determine cell viability. The percent growth inhibition was calculated from the fluorescence intensity of each well in 384-well assay plates. Data points represent mean of duplicates.
Small interfering RNA (siRNA) pools targeting ALOX15B and ALOXE3 were obtained from Dharmacon Technologies (Lafayette, Colo.). On the day of reverse-transfection, a cocktail of 1 mL of Opti-MEM (Invitrogen Corp., Carlsbad, Calif.), 6 μL of Lipofectamine RNAiMAX (Invitrogen), and 5 μL of 10 μM siRNA were prepared and transferred to each well of a 6-well plate. The 6-well plate was put in the tissue culture incubator for 20 minutes to allow the formation of transfection mixture. While the complex was forming, HT-1080 cells were trypsinized and the cell number was determined using ViCell (Trypan Blue). 200,000 cells were prepared in 1 mL of growth media with 2× serum, and then, the cell suspension was transferred to each well containing 1 mL of the transfection mix. The 6-well plate was returned to the incubator and the culture grown for 2 days. […]

[2] = tested on: BJeH, BJeHLT, BJeLR and DRD cells; format: cell-based; settings: 0.4 μM RSL3, BJeLR vs BJeHLT cells
[3] = tested on: GFP-ALOX5; assay: GFP-ALOX5 translocation in BJ-derived cell lines; format: cell-based, human
Protocol: A cDNA of ALOX5 (GeneBank ID: BC130332.1) was cloned into a pBabe-puro vector to express GFP fused ALOX5 (N-terminal GFP fusion) in cells. The plasmid was transfected into PLAT-GP cells (Cell Biolabs Inc., cat # RV-103, San Diego, Calif.) along with a pVSV-G helper plasmid to produce retrovirus harboring the expression plasmid. 0.2 million target cells (BJeH, BJeHLT, BJeLR or HT-1080 cells) were seeded in 10 cm tissue culture dishes and incubated in the tissue culture incubator for 1 day. A frozen stock of retrovirus solution was thawed at 37° C. for 2 minutes, and polybrene (Sigma, cat. # H9268) was added at a final concentration of 8 μg/mL. Culture medium was replaced with virus/polybrene mix and the culture dish was incubated for two hours with rocking every 30 minutes. After 2 hours, 10 mL of growth media was added to culture dish, and the culture was incubated further for 2 days. Cell lines stably expressing GFP-ALOX5 protein were selected using 1.5 μg/mL puromycin and used for the GFP-ALOX5 translocation assay.
ALOX5 is one of the six human ALOX genes and plays a critical role in leukotriene synthesis. In the basal state, the ALOX5 protein remains in the nucleus; however, upon activation, it translocates to the nuclear membrane (Chen et al., 2001). […] Second, calcium chelators were not effective in suppressing erastin-induced cell death (Wolpaw et al., 2011).

[4] = tested on: BJ-derived cell lines; assay: GSH depletion assay in BJ-derived cell lines; format: cell-based, human; settings: BJeLR cells, lethal RSL3 dose
Protocol: Bar graph: mean+s.d.; n=3. *, P<0.05.
2 million cells were seeded on 10 cm dishes. The next day, cells were treated with compounds to induce GSH depletion followed by harvesting to determine cell number. Two million live cells from each sample were transferred to new tubes, and centrifuged at 1,000 rpm at 4° C. for 5 minutes. The cell pellet was resuspended in 1 mL of PB buffer (10 mM sodium phosphate buffer, 1 mM EDTA, pH 7) and sonicated using 60 Joule energy. The lysate was centrifuged at 13,200 rpm at 4° C. for 10 minutes, and then the cleared lysate was used to determine the amount of GSH in the sample. The QuantiChrome glutathione assay kit (BioAssay Systems, cat # DIGT-250) was used and the product instructions were followed to determine GSH level.

[5] = tested on: BJeLR cells; assay: Lipid peroxide detection using BODIPY-C11 in BJ-derived cells; format: cell-based, human

**Q.** Which “effect of ALOX15B knockdown on compound-induced cell death” value [1] does the source give for `COC(=O)c1ccc([C@@H]2c3[nH]c4ccccc4c3C[C@@H](C(=O)OC)N2C(=O)CCl)cc1` [RSL3] here?
**A.** sensitized cells to RSL3-induced cell death

**Q.** And the “effect of ALOXE3 knockdown on compound-induced cell death” value [1]?
**A.** suppressed

**Q.** And the selective lethality [2]?
**A.** exhibited selective lethality in BJeLR cells

**Q.** And the “GFP-ALOX5 translocation to the nuclear membrane” value [3]?
**A.** caused GFP-ALOX5 translocation to the nuclear membrane

**Q.** What about the “cellular GSH level” value [4] of the same compound?
**A.** remained unaffected

**Q.** What about the “lipid peroxide generation (BODIPY-C11 fluorescence)” value [5] of the same compound?
**A.** generation of lipid peroxides

From patent US9695133B2, “Quinazolinone-based oncogenic-RAS-selective lethal compounds and their use” (THE TRUSTEES OF COLUMBIA UNIVERSITY IN THE CITY OF NEW YORK, priority 2012, dated 2017)
